Read-outs that look alike come from different tables or passages of the source.
How the values were obtained:
[1] = system: human MDA-MB-231 breast cancer cells; experiment: Antiproliferative activity, tetrazolium reduction assay (Lazo method), 72 h; format: cell-based; settings: for IC50: MDA-MB-231, 72 h continuous treatment, read-out: concentration causing 50% growth inhibition
Text: The ability of the compounds of the present invention to inhibit proliferation can be assessed by methods known to those of ordinary skill in the art. For example, proliferating cells can be contacted with a compound of the invention, and cell numbers determined. A reduction in cell number in treated versus untreated cells provides a measure of the ability of the present compounds to inhibit proliferation. In a preferred embodiment the cells to be treated are cancer cells, for example breast cancer cells such as the CDC25B+ breast cancer cells MDA-MB-231, which are available from the American Type Culture Collection (Accession No. HTB-26). The antiproliferative activity of the present compounds can also be measured by the assay described by Lazo et al. (1995) J. Biol. Chem. 270: 5506, the disclosure of which is incorporated herein by reference. The microtiter-based calorimetric assay is based upon the reduction of 3-[4,5-dimethylthiazol-2-yl]-2,5-diphenyl tetrazolium bromide by living cells, and permits evaluation of the cytostatic or cytotoxic actions of large numbers of compounds quickly in mouse embryonic fibroblasts and human CDC25B+ breast cancer cells. Briefly, exponentially growing CDC25B+ MDA-MB-231 cells are treated continuously with from 0 to 100 μM of a compound of the invention, and cell proliferation is determined calorimetrically after 72 hours by assessing the ability of the cells to reduce 3-[4,5-dimethylthiazol-2-yl]-2,5-diphenyl tetrazolium bromide.
Human MDA-MB-231 breast carcinoma cells were obtained from the American Type Culture Collection at passage 28 and were maintained for no longer than 20 passages. The cells were grown in RPMI-1640 supplemented with 1% penicillin (100 μg/mL) and streptomycin (100 μg/mL), 1% L-glutamate,and 10% fetal bovine serum in a humidified incubator at 37° C. under 5% CO2 in air. Cells were routinely found free of mycoplasma. To remove cells from the monolayer for passage or flow cytometry, cells were washed two times with phosphate buffer and briefly (<3 min) treated with 0.05% trypsin/2 mM EDTA at room temperature. After the addition of at least two volumes of growth medium containing 10W fetal bovine serum, the cells were centrifuged at 1,000×g for 5 min. Compounds were made into stock solutions using DMSO, and stored at -20° C. All compounds and controls were added to obtain a final concentration of 0.1-0.2% (v/v) of the final solution for experiments.
The antiproliferative activity of the compounds was determined by the method of Lazo et al. (1995) J. Biol. Chem. 270:5506. Briefly, cells (6.5×10^3 cells/cm^2) were plated in 96 well flat bottom plates for the cytotoxicity studies and incubated at 37° C. for 48 h. The plating medium was aspirated off 96 well plates and 200 μL of growth medium containing the compound was added per well. Compounds were used at from O to the highest available concentration which ranged from 30 to 100 μM. Plates were incubated for 72 h, and then washed 4× with serum free medium. After washing, 50 μL of 3-[4,5-dimethylthiazol-2-yl]-2,5-diphenyl tetrazolium bromide solution (2 mg/mL) was added to each well, followed by 150 μL of complete growth medium. Plates were then incubated an additional 4 h at 37° C. The solution was aspirated off, 200 μL of DMSO added, and the plates were shaken for 30 min at room temperature. Absorbance at 540 nm was determined with a Titertek Multiskan Plus plate reader. Biologically active compounds were tested at least 3 independent times.

PP2A = PP2A (Bos taurus, UniProt P67774); experiment: Phosphatase activity by [32P] release from phosphorylase-a or phosphohistone (Honkanen method); format: biochemical; settings: 100 μM inhibitor; none = 100; read-out: PP2A, percent inhibition relative to control (100%)
Sequence of PP2A (P67774 whole entry): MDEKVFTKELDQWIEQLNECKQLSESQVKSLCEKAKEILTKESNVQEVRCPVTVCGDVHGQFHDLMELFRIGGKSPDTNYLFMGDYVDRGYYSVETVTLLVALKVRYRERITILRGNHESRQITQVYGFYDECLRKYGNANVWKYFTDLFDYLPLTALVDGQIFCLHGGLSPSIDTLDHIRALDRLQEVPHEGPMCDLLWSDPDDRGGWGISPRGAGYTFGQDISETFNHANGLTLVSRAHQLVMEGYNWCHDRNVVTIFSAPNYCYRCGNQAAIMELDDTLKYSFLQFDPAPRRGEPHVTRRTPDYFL
Protocol: (§1) It has been found in accordance with the present invention that compounds of formula I are capable of inhibiting serine/threonine protein phosphatases. Inhibition of serine/threonine protein phosphatases is defined herein as inhibition of the activity of one or more of PP1, PP2A or PP3 at a concentration of 100 μM or less of the inhibitor compound. In a preferred embodiment, the activity of the phosphatase is inhibited by at least 10%. In more preferred embodiments, the activity of the phophatase is inhibited by at least 25%, or even more preferably, by at least 50%. Inhibition of PP1, PP2A or PP3 can be assessed by methods known to one of ordinary skill in the art. Suitable assays are described, for example by Honkanen et al. (1994) Toxicon 32:339 and Honkanen et al. (1990) J. Biol. Chem. 265: 19401, the disclosures of which are incorporated herein by reference. Briefly, phosphatase activity is determined by quantifying the [^32 p] released from a ^32 p-labeled substrate such as phosphohistone or phosphorylase-a. Decreased [^32 p] release in the presence of the compounds of the present invention relative to control samples provides a measure of the ability of the compounds of the invention to inhibit PP1, PP2A or PP3.
(§2) Phosphatase activity and the inhibitory activity of the compounds of Table 1 were determined by the method of Honkanen et al. (1994) Toxicon 32:339. Briefly, phosphatase activity against phosphorylase-a or phosphohistone was 25 determined by the quantification of liberated [^32 p]. Assays, 80 μl total volume, containing 50 mM Tris-HCl, pH 7.4, 0.5 mM DTT, 1 mM EDTA (assay buffer) and [^32 p]phosphoprotein (1-2 μM PO4), were conducted as described previously (Honkanen et al., 1991 Mol. Pharmac. 40:577). Dephosphorylation reactions were routinely conducted for 5-10 min. using phosphorylase-a as a substrate and for 10-20 min. using phosphohistone. In all assays the dephosphorylation of substrate was kept to less than 10% of the total phosphorylated substrate available, and the reactions were adjusted to ensure that enzyme activity was linear with respect to enzyme concentration and time. [^32 p]Phosphate liberated by the enzymes was extracted as a phosphomolybdate complex and measured according to the methods of Killilea et al. (1978) Arch. Biochem. Biophys. 191:638. Inhibition of protein phosphatase activity by inhibitors was determined by adding the 100 μM of inhibitors to the enzyme mixture 5-10 min. prior to initiating the reaction with the addition of substrate.

PP3 = experiment: as above; format: biochemical; settings: 100 μM inhibitor; none = 100
Protocol: as §1, §2

PP1 = experiment: as above; format: biochemical; settings: 100 μM inhibitor; none = 100
Protocol: as §1, §2

CCCCCCCCCC(=O)NC(CCC(=O)N(CCNC(=O)c1nc(-c2ccccc2)oc1-c1ccccc1)Cc1ccccc1)C(=O)O (stereo not shown) [Compound 1f]
IC50 ([1]; Homo sapiens, MDA-MB-231, 72 h): 100 µM
concentration dependence of growth inhibition (in words) ([1]; MDA-MB-231, 72 h): concentration-dependent inhibition in proliferation
concentration dependence of growth inhibition (in words) ([1]; MDA-MB-231, 72 h, listed as if): clear concentration-dependency
IC50 [1]: 88 to 100 µM
PP2A remaining activity, % of control at 100 µM (PP2A): 156%
PP3 remaining activity, percent of control (PP3): 85%
PP1 remaining activity, percent of control (PP1): 117%
